Measured values: patent publication US20250090514A1, “METHOD OF TREATING CANCER” (Laekna Limited, priority 2019, published 2025)
Read-outs that look alike come from different tables or passages of the source.

What was measured:
[1] = Body weight and tolerability in the Mini-PDX study; type: in vivo
Protocol: During the study, the care and use of animals were conducted in accordance with the regulations of the Association for Assessment and Accreditation of Laboratory Animal Care (AAALAC). After Mini-PDX device inoculation, the animals were checked daily for morbidity and mortality. At the time of routine monitoring, the animals were checked for any effects of treatments on normal behavior such as mobility, visual estimation of food and water consumption, body weight gain/loss, eye/hair matting and any other abnormal effect.
The body weight of mice was measured every day, and relative change of bodyweight was calculated for each mouse according to the following formula: RCBW(%)=(BWi−BW0)/BW0×100, BWi is the body weight after treatment on a given day, BW0 is the bodyweight on the first day of treatment.

aldosterone synthesis = assay: Example C: aldosterone level and hyperaldosteronism; type: in vivo, human
From the text: Hyperaldosteronism is a disorder with several serious clinical symptoms including hypertension, hypokalemia, fatigue, headache, muscle weakness and numbness.

[2] = test system: metastatic castration-resistant prostate cancer (mCRPC) patients; conditions: cited from earlier work

SMILES	tolerability in the animals ([1]; afuresertib 75 mg/kg, CFG920 300 mg/kg)	Average RCBW (%)/Day 6 ([1]; relative change of body weight from day 0, afuresertib 75 mg/kg QD, CFG920 300 mg/kg BID)	aldosterone level vs baseline (aldosterone synthesis; baseline to Day 1 of Cycle 3, except Day 1 of Cycle 2 (similar to baseline), combination therapy)	clinical symptoms of hyperaldosteronism (aldosterone synthesis; during treatment with the combination therapy)	unconfirmed rate of ≥50% PSA decline from baseline ([2]; chemotherapy-naive mCRPC patients (32 of 124))	unconfirmed rate of ≥50% PSA decline from baseline ([2]; mCRPC patients with previous chemotherapy (16 of 57))
Cn1ncc(Cl)c1-c1cc(C(=O)N[C@H](CN)Cc2cccc(F)c2)sc1Cl [afuresertib, N-{(1S)-2-amino-1-[(3-fluorophenyl)methyl]ethyl}-5-chloro-4-(4-chloro-1-methyl-1H-pyrazol-5-yl)-2-thiophenecarboxamide]	tolerated well	−8.73%				
Cc1ccncc1N1CCN(c2ccnc(Cl)c2)C1=O [CFG920, 1-(2-chloro-pyridin-4-yl)-3-(4-methyl-pyridin-3-yl)-imidazolidin-2-one]			lower than the baseline level	did not cause any clinical symptoms of hyperaldosteronism	26%	28%
